Assay: gradient 5% acetonitrile 3 min, to 50% in 2 min, to 85% in 15 min, held 3 min, 100 µL/min
Conditions: column: Zorbax Extend-C18 2.1 x 50 mm; eluents: water / acetonitrile, 0.1% formic acid
Summary of the method: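 Values are retention times taken from adduct peaks that software picked and an analyst inspected. The pure standards were run as mixtures of ~100 molecules on HPLC linked to a quadrupole time-of-flight mass spectrometer, in positive and negative ionization mode. A Zorbax Extend-C18 column (2.1 × 50 mm, 1.8 μm) was used at 100 μL/min with water and acetonitrile, each including 0.1% formic acid.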

| Structure (SMILES) | RP-LC retention time |
| --- | --- |
| CCN(CC)S(=O)(=O)c1cc(-c2nnc(-c3ccccc3)o2)ccc1C | 1080 s |
| COCCN1C(=O)Cc2ccccc2C1C(=O)N1CCN(c2ccccc2Cl)CC1 (stereo unspecified) | 904 s |
| Cc1ccc(-n2nnc(C(=O)O)c2-c2ccncc2)cc1 | 636 s |
| O=C(Cn1nc2c(N3CCCCCC3)nccn2c1=O)Nc1ccc2c(c1)OCO2 | 667 s |
| CCc1nncn1C1CCN(C(=O)c2cc(C)cc(C)c2)CC1 | 655 s |
| Cn1cc(-c2ccc3nnc(Sc4ccc5ncccc5c4)n3n2)cn1 | 661 s |
| COCCn1cc(CCNC(=O)Nc2cccc(Br)c2)c2cccnc21 | 783 s |
| O=C(Nc1ccc2c(c1)CN(C(=O)c1ccco1)CC2)c1cnccn1 | 662 s |
| CCOC(=O)c1nc(N2CCN(c3cccc(OC)c3)CC2)c2c(C)noc2n1 | 960 s |
| Cc1ccc(-c2csc3c(=O)n(CC(=O)NC4CCCC4)cnc23)cc1 | 912 s |
| Cc1cc(C)cc(C(=O)N2CCCC(C(=O)NC3CCCCCC3)C2)c1 (stereo unspecified) | 955 s |
| CCOC(=O)c1cc(S(=O)(=O)N2CCN(c3ccccn3)CC2)[nH]n1 | 598 s |
| O=C(C1CCN(c2nc3cccnc3s2)CC1)N1CCN(c2ccccn2)CC1 | 590 s |
| CC(C)Cn1c(=O)c(-c2ccc(C(=O)N3CCC4(CC3)OCCO4)cc2)nc2ccccc21 | 987 s |
| COc1ccccc1N1CCN(CCCNc2cc(C(=O)O)c3ccccc3n2)CC1 | 575 s |
| O=C(NCCc1ccccc1)N1CCC(c2noc(-c3ccncc3)n2)C1 (stereo unspecified) | 731 s |
| Cc1ccc(N2CCC(NC(=O)NC3CCCC3)C2=O)cc1C (stereo unspecified) | 788 s |
| O=C(NCc1ccc(F)cc1)C1CCCN(c2nc3ccsc3c(=O)n2Cc2ccc(F)cc2)C1 (stereo unspecified) | 963 s |
| CCn1nc(C)c(CCNC(=O)C2CCCN(C(=O)c3[nH]c(C)cc3C)C2)c1C (stereo unspecified) | 630 s |
| O=c1n(Cc2nc(-c3ccc4c(c3)OCO4)no2)nc2ccc(-c3ccccc3)nn12 | 843 s |
| O=C(c1ccccc1Sc1nccnc1Oc1ccccc1)N1CCN(c2ccccn2)CC1 | 691 s |
| O=C(NCc1ccccn1)C1CCN(c2cc(N3CCCCC3)ncn2)CC1 | 558 s |
| Cc1nc(-c2cnccn2)nc2c1CCC(=O)N2Cc1ccco1 | 683 s |

| Structure (SMILES) | RP-LC retention time |
| --- | --- |
| O=C(NCc1cccs1)c1ccc2ncnc(N3CCCCC3)c2c1 | 644 s |
| Cc1cc(C(=O)N[C@@H]2CN(c3ncccn3)C[C@H]2CO)ccn1 | 529 s |
| COc1cccc(CNC(=O)N2CCCC2c2c(C)noc2C)c1 (stereo unspecified) | 733 s |
| O=C(C1CCN(c2ncccc2-c2nc(-c3cccc(Cl)c3)no2)CC1)N1CCOCC1 | 982 s |
| Cc1nn(CC(=O)NCCc2ccco2)c(=O)c2c(C)n(-c3ccccc3)nc12 | 774 s |
| C=CCN(CC=C)C(=O)Cn1c(C2CC(=O)N(c3ccc(OC)cc3)C2)nc2ccccc21 (stereo unspecified) | 682 s |
| CCc1ccc(NC(=O)CN2C(=O)C3CCCCN3c3ccc(S(=O)(=O)N(C)C)cc32)cc1 (stereo unspecified) | 817 s |
| COc1ccc(-c2noc(-c3nnn4c3COC(c3ccc(C)cc3C)C4)n2)cc1F (stereo unspecified) | 1260 s |
| COCCN1C(=O)Cc2ccccc2C1C(=O)N1CCN(c2ccccn2)CC1 (stereo unspecified) | 581 s |
| COc1ccc(-c2nc(C3CC(=O)N(c4ccc(C)cc4)C3)no2)cc1OC (stereo unspecified) | 937 s |
| Cc1cccc(Cn2nc(-c3nc(C(C)(C)C)no3)ccc2=O)c1 | 1110 s |
| Cc1cc(C)cc(OCc2nc(CCN(C)C(=O)Nc3ccccc3)no2)c1 | 970 s |
| Cc1nc(CNC(=O)C2CCN(C(=O)Nc3ccc(C)c(Cl)c3)CC2)cs1 | 714 s |
| Cc1ccc2nc(C)c(NC(=O)c3ccccc3C(F)(F)F)c(=O)n2c1 | 620 s |
| COc1ccccc1NC(=O)Nc1cc(C(C)C)ccc1C | 1160 s |
| COc1ccc(CNC(=O)C2CC(=O)N(CCc3c[nH]c4ccc(Cl)cc34)C2)cc1 (stereo unspecified) | 834 s |
| Cc1ccc(-n2c(CN3CCN(C(=O)Nc4ccc5c(c4)OCCO5)CC3)nc3cccnc32)cc1 | 676 s |
| c1ccc(-c2csc(Nc3ncccn3)n2)cc1 | 906 s |
| CCCNC(=O)N1CCC(c2noc(-c3ccccc3)n2)C1 (stereo unspecified) | 763 s |
| CCCC(=O)N1CCc2c([nH]c3ccccc23)C1c1ccc(OCC)cc1 (stereo unspecified) | 1140 s |
| COc1ccc(NC(=O)c2ccc(-n3cnc(NC(=O)C4CC4)c3)cc2)c(OC)c1 | 726 s |
| Cc1cc(NC(=O)c2ccccc2-c2nc(-c3ccccc3)no2)no1 | 925 s |
| O=C(CN1C(=O)NC2(CCCCC2)C1=O)Nc1ccc(F)cc1F | 736 s |

| Structure (SMILES) | RP-LC retention time |
| --- | --- |
| O=C(CN1CCN(c2ccccn2)CC1)Nc1nccs1 | 555 s |
| COc1ccccc1CNC(=O)Cn1c(N)nc(C)cc1=O | 574 s |
| Cc1cc(C)c2c(N3CCOCC3)nc(C(=O)N3CCC(C)CC3)nc2n1 | 626 s |
| CCn1ccc(C(=O)Nc2cccc(OCc3nnc(-c4ccc(Cl)cc4)o3)c2)n1 | 961 s |
| COc1ccc(-c2ccc(N3CCN(C(=O)c4cnc5ccccc5n4)CC3)nn2)cc1 | 615 s |
| O=C(O)c1nnn(-c2cccc(F)c2)c1C(F)(F)F | 744 s |
| O=C(c1cc2ccccc2[nH]1)N1CCN2CCS(=O)(=O)N(C3CC3)C(=O)C2C1 (stereo unspecified) | 780 s |
| Cc1ccc(-c2noc(CCN3CCN(c4ccccc4)CC3)n2)cc1 | 751 s |
| CCOc1ccc(CC(=O)N2C[C@@H]3C[C@H](NC(=O)c4ccccc4)[C@H]2C3)cc1 | 799 s |
| CCOC(=O)c1nc(N(CC)c2ccc(CC)cc2)c2ccccc2n1 | 1130 s |
| CCC(C)NC(=O)C1CCCN(c2ccc(-c3ccc(C)c(C)c3)nn2)C1 (stereo unspecified) | 716 s |
| CCOc1ccc(-c2noc(C3CC(=O)N(c4cc(Cl)ccc4OC)C3)n2)cc1 (stereo unspecified) | 1040 s |
| Cc1ccc(CNC(=O)C2CC(=O)N(c3ccc4oc(C)nc4c3)C2)cc1 (stereo unspecified) | 732 s |
| CC(C)(C)n1nc2c(c1NC(=O)c1nc3ccccc3s1)CSC2 | 952 s |
| COc1cccc(CCC(=O)N2C[C@@H]3C[C@H]2C[C@@H]3NC(=O)c2cccs2)c1 | 753 s |
| COc1ccc(CN2CC3(CCN(S(=O)(=O)c4cc(F)ccc4F)CC3)C2=O)cc1 | 924 s |
| CCn1c(N2CCC(C(=O)NCCCN3CCOCC3)CC2)cc(=O)n(C)c1=O | 574 s |
| O=C(CC1CCOC2(CCN(Cc3ccsc3)CC2)C1)N1CCOCC1 (stereo unspecified) | 570 s |
| O=C(NCc1ccccc1)Nc1ccc(-c2nc(-c3ccccc3)co2)cc1 | 1070 s |
| CC(O)CNC(=O)C1CCCN(c2ccc(Sc3ccc(Br)cc3)nn2)C1 (stereo unspecified) | 688 s |
| Cc1cccc(NC(=O)N2CCc3nc(-c4ccccc4)ncc3C2)c1C | 901 s |
| CN(C)C(CNC(=O)c1cc(-c2cccs2)on1)c1ccccc1 (stereo unspecified) | 664 s |
| CC1=NS(=O)(=O)N(C)C=C1C(=O)OCc1nc(-c2cccc(Cl)c2)no1 | 1010 s |

| Structure (SMILES) | RP-LC retention time |
| --- | --- |
| CNC(=O)c1cc(C(C)(C)C)[nH]n1 | 618 s |
| C=CCN(CC=C)c1nc(-c2ccc([N+](=O)[O-])cc2)nc2ccccc12 | 1060 s |
| CN(C1CCOCC1)C1CCN(C(=O)c2ccc(Cl)cc2)CC1 | 589 s |
| CC1CCCCN1CCNC(=O)c1nnc(-c2ccc(S(=O)(=O)N(C)C)cc2)o1 (stereo unspecified) | 620 s |
| Cc1cc(C)c(S(=O)(=O)N2CCc3c(c(-c4nnc(-c5ccccc5)o4)nn3C)C2)c(C)c1 | 1090 s |
| COc1ccc(C)cc1NS(=O)(=O)c1cc2c(s1)CCN(C(=O)C1CC1)C2 | 839 s |
| N#Cc1nnn(-c2ccc(Cl)cc2)c1N | 816 s |
| COc1cccc(CNC(=O)CN2C(=O)CSc3cccn3-c3ccccc32)c1 | 846 s |
| O=C(Nc1ccc(Cl)c(N2CCCS2(=O)=O)c1)c1ccno1 | 676 s |
| CC(O)(CNS(=O)(=O)c1cccnc1)c1ccco1 (stereo unspecified) | 604 s |
| O=C(Nc1nnc2n1CCS2)c1ccc2c(c1)OCO2 | 590 s |
| Cc1ccc(F)c(-n2cc(C(=O)O)nn2)c1 | 684 s |
| Cc1ccc(-c2nnc(-c3cccc(S(=O)(=O)Nc4cccnc4)c3)o2)cc1 | 775 s |
| Cc1ccc(S(=O)(=O)N2CC3CN(C(=O)COCc4ccccc4)CC(C2)O3)cc1 | 849 s |
| CCOC(=O)C1=C(C)N(CC(=O)NCC2CCCO2)c2ncnn2C1c1ccccc1 (stereo unspecified) | 747 s |
| Cc1nn2c(CNS(=O)(=O)c3cc(C)c(C)cc3C)c(-c3ccccc3)nc2s1 | 941 s |
| CCN(CC)CCCNC(=O)C1CCCN(c2ncc(-c3cccc(F)c3)cn2)C1 (stereo unspecified) | 677 s |
| Cc1cc(C)cc(C(=O)NCc2ccc3c(c2)CCCN3C(=O)C2CCC2)c1 | 981 s |
| O=C1CC(C(=O)N2CCOCC2)CN1CCc1c[nH]c2ccc(Cl)cc12 (stereo unspecified) | 677 s |
| CN1c2cc(C(=O)NCc3cc(F)cc(F)c3)ccc2C(=O)N2CCCCC21 (stereo unspecified) | 844 s |
| Cc1ccc(-n2nnc(C(=O)O)c2C)c(F)c1 | 705 s |
| CC(C)CN1CCN(C(=O)C2CC(=O)N(CCc3ccccc3)C2)CC1 (stereo unspecified) | 580 s |
